The target in one test is T1, KDR (Homo sapiens, UniProt P35968).
T1 construct: EEE-tag
Description: KDR kinase HTRF assay. The format is biochemical. The conditions noted are these: 0.3 mM ATP, read-out: IC50 (μM) - Enzyme Inhibition Assays KDR. The procedure: (§1) To determine inhibition of KDR, FGFR, EGFR, and PDGFR activity, kinase assays were conducted using an HTRF (Homogeneous Time Resolved Fluorescence) assay. This assay is described in A. J. Kolb et. al., Drug Discovery Today, 1998, 3(7), p 333.
Prior to kinase reaction, recombinant EEE-tagged KDR was activated in the presence of activation buffer (50 mM HEPES, pH 7.4, 1 mM DTT, 10% glycerol, 150 mM NaCl, 0.1 mM EDTA, 26 mM MgCl2, and 4 mM ATP). The enzyme was incubated at 4° C. for 1 hour.
(§2) Kinase activity assays were performed in 96-well polypropylene plates (Falcon) with a total volume of 90 μL in each well. Each well contained 1 μM KDR substrate (Biotin-EEEEYFELVAKKKK), 1 nM activated KDR, and a test compound with one of 8 assay concentrations ranging from 100 μM to […] (1:5 serial dilution). The kinase activity assay was done in the presence of 100 mM HEPES, pH 7.4, 1 mM DTT, 0.1 mM Na2VO4, 25 mM MgCl2, 50 mM NaCl (from KDR stock solution), 1% DMSO (from compound), 0.3 mM ATP (at Km concentration) and 0.02% BSA. The reaction was incubated at 37° C. for 30 minutes. To stop the KDR reaction, 72 μL of reaction mixture was transferred into a STOP plate containing 18 μL of revelation buffer (20 mM EDTA, 50 mM HEPES, pH 7.4, 0.02% BSA, 10 nM Eu-labelled anti-pY antibody (final conc. 2 nM), and 100 nM streptavidin (final conc. 20 nM)). After mixing, 35 μL of solution was transferred into duplicate wells of a 384-well black plate (Costar), and read at 615/665 nm on a Wallac Victor 5 reader.
(§3) Compound IC50 values were determined from duplicate sets of data, and calculated by using Excel and fitting data to equation Y=[(a−b)/{1+(X/c)^d]+b, where a and b are enzyme activity in the presence of no test inhibitor compound and an infinite amount of inhibitor test compound, respectively, c is the IC50 and d is the hill constant of the compound response. The IC50 value is the concentration of test compound that reduces by 50% the enzyme activity under the test conditions described.

For another test, the target named is T2, FGFR.
T2 construct: fused on or other part: GST tag
Description: FGFR kinase HTRF assay. The format is biochemical. As to conditions: 10 μM ATP, read-out: IC50 (μM) - Enzyme Inhibition Assays FGFR. The procedure:
as §1, §2
FGFR, EGFR, and PDGFR activity assays were carried out as described above for the KDR activity assay with the following differences. GST-tagged FGFR enzyme was activated at room temperature for 1 hour in the following activation buffer: 100 mM HEPES, pH 7.4, 50 mM NaCl, 20 mM MgCl2, and 4 mM ATP. The kinase activity assay was performed with 1 μM substrate (Biotin-EEEEYFELV), 1.5 nM activated FGFR, and test compound in the presence of 100 mM HEPES, 1 mM DTT, 0.4 mM MgCl2, 0.4 mM MnCl2, 50 mM NaCl, 1% DMSO, 10 μM ATP (Km=8.5 μM for FGFR), 0.1 mM Na2VO4, and 0.02% BSA, in a total volume of 90 μL. The rest of the assay was performed in the same manner as KDR assay.
as §3

Structures are written as SMILES. Bounds are passed on as bounds.

T1 sequence (P35968 20-1356, species assumed): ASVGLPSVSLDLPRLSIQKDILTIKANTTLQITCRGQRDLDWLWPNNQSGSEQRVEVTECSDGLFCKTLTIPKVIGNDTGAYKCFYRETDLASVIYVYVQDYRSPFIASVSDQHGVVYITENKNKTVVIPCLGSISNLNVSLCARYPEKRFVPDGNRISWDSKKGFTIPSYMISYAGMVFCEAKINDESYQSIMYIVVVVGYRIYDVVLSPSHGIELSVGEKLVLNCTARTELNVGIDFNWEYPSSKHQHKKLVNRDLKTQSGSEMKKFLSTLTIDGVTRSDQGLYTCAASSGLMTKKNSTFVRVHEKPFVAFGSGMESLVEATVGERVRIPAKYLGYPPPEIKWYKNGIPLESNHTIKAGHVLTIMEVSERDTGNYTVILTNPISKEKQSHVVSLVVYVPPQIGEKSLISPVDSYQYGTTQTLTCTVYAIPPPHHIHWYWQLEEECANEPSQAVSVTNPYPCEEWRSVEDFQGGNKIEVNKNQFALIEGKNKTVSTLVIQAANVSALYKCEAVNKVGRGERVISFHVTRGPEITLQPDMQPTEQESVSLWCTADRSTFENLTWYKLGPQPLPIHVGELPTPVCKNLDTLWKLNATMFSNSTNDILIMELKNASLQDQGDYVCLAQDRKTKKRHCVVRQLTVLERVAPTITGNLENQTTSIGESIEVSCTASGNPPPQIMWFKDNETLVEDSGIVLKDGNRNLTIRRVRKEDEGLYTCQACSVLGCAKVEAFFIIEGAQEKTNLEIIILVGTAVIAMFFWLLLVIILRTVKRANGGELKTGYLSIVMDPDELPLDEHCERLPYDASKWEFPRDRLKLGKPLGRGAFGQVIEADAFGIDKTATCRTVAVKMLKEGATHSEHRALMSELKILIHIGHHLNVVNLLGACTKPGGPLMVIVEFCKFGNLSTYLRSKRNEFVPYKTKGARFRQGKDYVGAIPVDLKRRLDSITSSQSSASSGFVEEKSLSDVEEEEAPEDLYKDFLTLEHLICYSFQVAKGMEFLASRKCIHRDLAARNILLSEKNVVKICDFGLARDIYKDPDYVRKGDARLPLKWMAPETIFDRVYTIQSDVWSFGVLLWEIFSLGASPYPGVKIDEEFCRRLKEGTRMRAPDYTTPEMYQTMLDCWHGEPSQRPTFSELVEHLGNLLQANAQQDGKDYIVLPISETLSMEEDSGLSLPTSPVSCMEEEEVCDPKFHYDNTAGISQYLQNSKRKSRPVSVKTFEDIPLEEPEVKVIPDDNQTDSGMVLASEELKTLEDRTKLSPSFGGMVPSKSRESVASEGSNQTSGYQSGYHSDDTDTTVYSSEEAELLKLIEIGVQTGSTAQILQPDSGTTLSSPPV

In the case of `COc1ccc(N2C(=O)N(c3ccccc3)c3nc(Nc4ccccc4)ncc3C2C)cc1` (racemic) [Example 1g, (±)-3-(4-Methoxy-phenyl)-4-methyl-1-phenyl-7-phenylamino-3,4-dihydro-1H-pyrimido[4,5-d]pyrimidin-2-one], the IC50 at KDR and on FGFR was less than 10 µM throughout.
Regarding `COc1ccc(N2C(=O)N(c3ccc(OC)cc3)C(C)c3cnc(Nc4ccccc4)nc32)cc1` (racemic) [Example 4b, (±)-1,3-Bis-(4-methoxy-phenyl)-4-methyl-7-phenylamino-3,4-dihydro-1H-pyrimido[4,5-d]pyrimidin-2-one], the IC50 at KDR and on FGFR was less than 10 µM each time.
On to `COc1ccc(N2C(=O)N(c3cccc(C#N)c3)c3nc(Nc4ccccc4)ncc3C2C)cc1` (racemic) [Example 5b, (±)-3-[3-(4-Methoxy-phenyl)-4-methyl-2-oxo-7-phenylamino-3,4-dihydro-2H-pyrimido[4,5-d]pyrimidin-1-yl]-benzonitrile], for which the IC50 at KDR and at FGFR was less than 10 µM throughout.
For `COc1ccc(N2C(=O)N(c3cccc(C(N)=O)c3)c3nc(Nc4ccccc4)ncc3C2C)cc1` (racemic) [Example 6, (±)-3-[3-(4-Methoxy-phenyl)-4-methyl-2-oxo-7-phenylamino-3,4-dihydro-2H-pyrimido[4,5-d]pyrimidin-1-yl]-benzamide], the IC50 on KDR and on FGFR was less than 10 µM throughout.
With `COc1ccc(N2C(=O)N(c3ccccc3)c3nc(Nc4ccccc4)ncc3C2C)c(F)c1` (racemic) [Example 8d, (±)-3-(2-Fluoro-4-methoxy-phenyl)-4-methyl-1-phenyl-7-phenylamino-3,4-dihydro-1H-pyrimido[4,5-d]pyrimidin-2-one], the IC50 at KDR and at FGFR was less than 10 µM throughout.
For `COc1ccc(N2C(=O)N(c3cccc(C#N)c3)c3nc(Nc4ccccc4)ncc3C2C)c(F)c1` (racemic) [Example 9b, (±)-3-[3-(2-Fluoro-4-methoxy-phenyl)-4-methyl-2-oxo-7-phenylamino-3,4-dihydro-2H-pyrimido[4,5-d]pyrimidin-1-yl]-benzonitrile], the IC50 at KDR and at FGFR was less than 10 µM each time.
With `COc1ccc(N2C(=O)N(c3cccc(C(N)=O)c3)c3nc(Nc4ccccc4)ncc3C2C)c(F)c1` (racemic) [Example 10, (±)-3-[3-(2-Fluoro-4-methoxy-phenyl)-4-methyl-2-oxo-7-phenylamino-3,4-dihydro-2H-pyrimido[4,5-d]pyrimidin-1-yl]-benzamide], the IC50 on KDR and on FGFR was less than 10 µM each time.
For `COc1ccc(N2C(=O)N(c3ccccc3)c3nc(Nc4ccccc4)ncc3[C@@H]2C)cc1` (single isomer, unassigned) [Example 3], the IC50 at KDR and on FGFR was less than 10 µM throughout.
Regarding `COc1ccc(N2C(=O)N([C@H](C)CO)c3nc(Nc4ccccc4)ncc3[C@@H]2C)cc1` [Example 15b, 1-(2-Hydroxy-1-(R)-methyl-ethyl)-3-(4-methoxy-phenyl)-4-(S)-methyl-7-phenylamino-3,4-dihydro-1H-pyrimido[4,5-d]pyrimidin-2-one], the IC50 at KDR and at FGFR was less than 10 µM each time.

The values above are taken from patent US7112676B2, “Pyrimido compounds having antiproliferative activity” (Hoffmann-La Roche Inc., priority 2002, dated 2006).
